# Assay results reported in patent US20200055839A1 (priority 2017, published 2020).
# Tested on: NL-RLuc virus
# Test: Inhibition of HIV replication (NL-RLuc virus, luciferase readout in MT-2 cells)
# Type: cell-based
# Conditions: Human immunodeficiency virus 1, MT2, 120 h, MT-2 cells infected with NL-RLuc virus, 5 days of incubation, 10% FBS, at least 2 experiments
# Outline: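 MT-2 cells infected with NL4-3-derived virus carrying Renilla luciferase in place of part of nef, grown 5 days with serial compound dilutions in RPMI 1640/10% FBS. Virus growth read as luciferase expression. EC50 from median effect equation, at least 2 experiments.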
row,SMILES,EC50 [nM]
1,"Cc1ncc(-c2ccc(O[C@@H](C)C(C)C)cc2)c(N2CCC(C)(C)CC2)c1[C@H](OC(C)(C)C)C(=O)O [Example 363, (2S)-2-(tert-butoxy)-2-[4-(4,4-dimethylpiperidin-1-yl)-2-methyl-5-(4-{[(2S)-3-methylbutan-2-yl]oxy}phenyl)pyridin-3-yl]acetic acid]",13
2,"Cc1nc(-c2cnc(C)c([C@H](OC(C)(C)C)C(=O)O)c2N2CCC(C)(C)CC2)ncc1OCCc1ccc(F)cc1 [Example 245, (S)-2-(tert-Butoxy)-2-(4-(4,4-dimethylpiperidin-1-yl)-5-(5-(4-fluorophenethoxy)-4-methylpyrimidin-2-yl)-2-methylpyridin-3-yl)acetic acid]",2
3,"Cc1ncc(-c2ccc(OCC(C)C)nc2F)c(N2CCC(C)(C)CC2)c1[C@H](OC(C)(C)C)C(=O)O [Example 434, (2S)-2-tert-Butoxy-2-(4-(4,4-dimethylpiperidin-1-yl)-2′-fluoro-6′-isobutoxy-6-methyl-3, 3′-bipyridin-5-yl)acetic acid]",13
4,"Cc1ncc(-c2cnc(OCC(C)(C)c3ccccc3)c(F)c2)c(N2CCC(C)(C)CC2)c1[C@H](OC(C)(C)C)C(=O)O [Example 402, (2S)-2-(tert-butoxy)-2-[4-(4,4-dimethylpiperidin-1-yl)-5′-fluoro-6-methyl-6′-(2-methyl-2-phenylpropoxy)-[3,3′-bipyridine]-5-yl]acetic acid]",3
5,"COc1ccc(-c2cnc(C)c([C@H](OC(C)(C)C)C(=O)O)c2N2CCC(C)(C)CC2)cc1C [Example 178, (2S)-2-(tert-Butoxy)-2-[4-(4,4-dimethylpiperidin-1-yl)-5-(4-methoxy-3-methylphenyl)-2-methylpyridin-3-yl]acetic acid]",2
6,"Cc1ncc(-c2ccc(OCCc3ccccc3)cn2)c(N2CCC(C)(C)CC2)c1[C@H](OC(C)(C)C)C(=O)O [Example 285, (S)-2-(tert-Butoxy)-2-(4′-(4,4-dimethylpiperidin-1-yl)-6′-methyl-5-phenethoxy-[2, 3′-bipyridin]-5′-yl)acetic acid]",0.6
7,"Cc1nc(NCC2CCN(C)CC2)c(-c2ccc(OCCc3ccc(F)cc3)cc2)c(N2CCC(C)(C)CC2)c1[C@H](OC(C)(C)C)C(=O)O [Example 42, (S)-2-(tert-Butoxy)-2-(4-(4,4-dimethylpiperidin-1-yl)-5-(4-(4-fluorophenethoxy)phenyl)-2-methyl-6-(((1-methylpiperidin-4-yl)methyl)amino)pyridin-3-yl)acetic acid]",3
8,"Cc1nc(NCC2CCOCC2)c(-c2ccc(OCCc3ccc(F)cc3)cc2)c(N2CCC(C)(C)CC2)c1[C@H](OC(C)(C)C)C(=O)O [Example 44, (S)-2-(tert-Butoxy)-2-(4-(4,4-dimethylpiperidin-1-yl)-5-(4-(4-fluorophenethoxy)phenyl)-2-methyl-6-(((tetrahydro-2H-pyran-4-yl)methyl)amino)pyridin-3-yl)acetic acid]",3
9,"Cc1cccc(Cl)c1COc1ccc(-c2cnc(C)c([C@H](OC(C)(C)C)C(=O)O)c2N2CCC(C)(C)CC2)cn1 [Example 423, (S)-2-(tert-Butoxy)-2-(6′-((2-chloro-6-methylbenzyl)oxy)-4-(4,4-dimethylpiperidin-1-yl)-6-methyl-[3, 3′-bipyridin]-5-yl)acetic acid]",8
10,"Cc1nc(-c2cn(C)cn2)c(-c2ccc(OCCc3ccc(F)cc3)cc2)c(N2CCC(C)(C)CC2)c1[C@H](OC(C)(C)C)C(=O)O [Example 57, (S)-2-(tert-Butoxy)-2-(4-(4,4-dimethylpiperidin-1-yl)-5-(4-(4-fluorophenethoxy)phenyl)-2-methyl-6-(1-methyl-1H-imidazol-4-yl)pyridin-3-yl)acetic acid]",13
11,"Cc1ncc(-c2cnc(OCCc3cccc(Cl)c3)c(F)c2)c(N2CCC(C)(C)CC2)c1[C@H](OC(C)(C)C)C(=O)O [Example 371, (2S)-2-(tert-butoxy)-2-{6′-[2-(3-chlorophenyl)ethoxy]-4-(4,4-dimethylpiperidin-1-yl)-5′-fluoro-6-methyl-[3,3′-bipyridine]-5-yl}acetic acid]",1
12,"Cc1ccncc1Nc1nc(C)c([C@H](OC(C)(C)C)C(=O)O)c(N2CCC(C)(C)CC2)c1-c1ccc(OCCc2ccc(F)cc2)cc1 [Example 86, (S)-2-(tert-Butoxy)-2-(4-(4,4-dimethylpiperidin-1-yl)-5-(4-(4-fluorophenethoxy)phenyl)-2-methyl-6-((4-methylpyridin-3-yl)amino)pyridin-3-yl)acetic acid]",3
13,"COc1cccc(-c2cnc(C)c([C@H](OC(C)(C)C)C(=O)O)c2N2CCC(C)(C)CC2)n1 [Example 189, (S)-2-(tert-Butoxy)-2-(4′-(4,4-dimethylpiperidin-1-yl)-6-methoxy-6′-methyl-[2, 3′-bipyridin]-5′-yl)acetic acid]",41
14,"Cc1nc(OCC(C)C)c(Cl)cc1-c1cnc(C)c([C@H](OC(C)(C)C)C(=O)O)c1N1CCC(C)(C)CC1 [Example 425, (S)-2-(tert-Butoxy)-2-(5′-chloro-4-(4,4-dimethylpiperidin-1-yl)-6′-isobutoxy-2′,6-dimethyl-[3, 3′-bipyridin]-5-yl)acetic acid]",126
15,"Cc1nc(NC2CCN(C)CC2)c(-c2ccc(OCCc3ccc(F)cc3)cc2)c(N2CCC(C)(C)CC2)c1[C@H](OC(C)(C)C)C(=O)O [Example 25, (S)-2-(tert-Butoxy)-2-(4-(4,4-dimethylpiperidin-1-yl)-5-(4-(4-fluorophenethoxy)phenyl)-2-methyl-6-((1-methylpiperidin-4-yl)amino)pyridin-3-yl)acetic acid]",0.8
16,"Cc1ccc(-c2cnc(C)c([C@H](OC(C)(C)C)C(=O)O)c2N2CCC(C)(C)CC2)nc1 [Example 185, (2S)-2-(tert-Butoxy)-2-[4′-(4,4-dimethylpiperidin-1-yl)-5,6′-dimethyl-[2, 3′-bipyridine]-5′-yl]acetic acid]",11
17,"Cc1ncc(-c2ccc(F)cc2)c(N2CCC(C)(C)CC2)c1[C@H](OC(C)(C)C)C(=O)O [Example 135, (2S)-2-(tert-Butoxy)-2-[4-(4,4-dimethylpiperidin-1-yl)-5-(4-fluorophenyl)-2-methylpyridin-3-yl]acetic acid]",3
18,"Cc1nc(NCCCN2CCN(C)CC2)c(-c2ccc(OCCc3ccc(F)cc3)cc2)c(N2CCC(C)(C)CC2)c1[C@H](OC(C)(C)C)C(=O)O [Example 52, (S)-2-(tert-Butoxy)-2-(4-(4,4-dimethylpiperidin-1-yl)-5-(4-(4-fluorophenethoxy)phenyl)-2-methyl-6-((3-(4-methylpiperazin-1-yl)propyl)amino)pyridin-3-yl)acetic acid]",1
19,"Cc1ccc(CCOc2ccc(-c3cnc(C)c([C@H](OC(C)(C)C)C(=O)O)c3N3CCC(C)(C)CC3)nc2)cc1Cl [Example 331, (2S)-2-(tert-butoxy)-2-{5-[2-(3-chloro-4-methylphenyl)ethoxy]-4′-(4,4-dimethylpiperidin-1-yl)-6′-methyl-[2,3′-bipyridine]-5′-yl}acetic acid]",0.5
20,"Cc1ncc(-c2cnc(OCC(C)(C)C)c(F)c2)c(N2CCC(C)(C)CC2)c1[C@H](OC(C)(C)C)C(=O)O [Example 375, (2S)-2-(tert-butoxy)-2-[4-(4,4-dimethylpiperidin-1-yl)-6′-(2,2-dimethylpropoxy)-5′-fluoro-6-methyl-[3,3′-bipyridine]-5-yl]acetic acid]",8
21,"Cc1ncc(-c2ccc(OCCCC(C)(C)C)cn2)c(N2CCC(C)(C)CC2)c1[C@H](OC(C)(C)C)C(=O)O [Example 351, (2S)-2-(tert-butoxy)-2-{5-[(4,4-dimethylpentyl)oxy]-4′-(4,4-dimethylpiperidin-1-yl)-6′-methyl-[2,3′-bipyridine]-5′-yl}acetic acid]",0.8
22,"Cc1cc(CCOc2ncc(-c3cnc(C)c([C@H](OC(C)(C)C)C(=O)O)c3N3CCC(C)(C)CC3)cc2F)ccc1F [Example 397, (2S)-2-(tert-butoxy)-2-[4-(4,4-dimethylpiperidin-1-yl)-5′-fluoro-6′-[2-(4-fluoro-3-methylphenyl)ethoxy]-6-methyl-[3,3′-bipyridine]-5-yl]acetic acid]",2
23,"Cc1nc(Nc2cccnc2F)c(-c2ccc(OCCc3ccc(F)cc3)cc2)c(N2CCC(C)(C)CC2)c1[C@H](OC(C)(C)C)C(=O)O [Example 90, (S)-2-(tert-Butoxy)-2-(4-(4,4-dimethylpiperidin-1-yl)-5-(4-(4-fluorophenethoxy)phenyl)-6-((2-fluoropyridin-3-yl)amino)-2-methylpyridin-3-yl)acetic acid]",5
24,"CC1(C)CCN(c2c(-c3ccc(F)c(F)c3)cnc(Cl)c2[C@H](OC(C)(C)C)C(=O)O)CC1 [Example 208, (S)-2-(tert-Butoxy)-2-(2-chloro-5-(3,4-difluorophenyl)-4-(4,4-dimethylpiperidin-1-yl)pyridin-3-yl)acetic acid]",35
25,"Cc1cc(-c2cnc(C)c([C@H](OC(C)(C)C)C(=O)O)c2N2CCC(C)(C)CC2)ccn1 [Example 142, (2S)-2-(tert-Butoxy)-2-[4-(4,4-dimethylpiperidin-1-yl)-2′,6-dimethyl-[3, 4′-bipyridine]-5-yl]acetic acid]",6
26,"Cc1nc(Nc2cc(F)ccn2)c(-c2ccc(OCCc3ccc(F)cc3)cc2)c(N2CCC(C)(C)CC2)c1[C@H](OC(C)(C)C)C(=O)O [Example 81, (S)-2-(tert-Butoxy)-2-(4-(4,4-dimethylpiperidin-1-yl)-5-(4-(4-fluorophenethoxy)phenyl)-6-((4-fluoropyridin-2-yl)amino)-2-methylpyridin-3-yl)acetic acid]",11
27,"COc1cnc(-c2cnc(C)c([C@H](OC(C)(C)C)C(=O)O)c2N2CCC(C)(C)CC2)nc1 [Example 228, (S)-2-(tert-Butoxy)-2-(4-(4,4-dimethylpiperidin-1-yl)-5-(5-methoxypyrimidin-2-yl)-2-methylpyridin-3-yl)acetic acid]",52
